≈ marks a conversion by molar mass, not a printed value.
What was measured:
[1] = tested on: Leishmania amazonensis promastigotes; assay: Viability assay of promastigotes, XTT colorimetric method (LD50); assay type: cell-based, Leishmania amazonensis (MHOM/BR/1977/LTB0016); conditions: 25°C
Experimental: The viability of L. amazonensis (MHOM/BR/1977/LTB0016) promastigotes was evaluated using the XTT colorimetric method, which consists in the XTT salt degradation by the mitochondria forming formazan crystals. Promastigote forms (2×10^7 parasites/mL) from a culture in logarithmic growth phase were incubated with lapachol and β-lapachone diluted in 199 culture medium. The drugs were diluted in series, in a ratio of two, starting from 1/2, on a 96-well cell culture plate (TPP™ test plate, Switzerland). The compounds were tested at concentrations from 204.4 to 0.40 µg/mL (lapachol) and 157.5 to 0.31 µg/mL (β-lapachone). After 24, 48, and 72 h of incubation at 25°C, 100 μL of the XTT solution (500 μg/mL) activated with PMS (50 μg/mL) were added to each well and incubated for 4 h at 37°C. The result was measured by absorbance, determined by spectrophotometry (450/650 nm filter, VersaMax™ ELISA microplate reader, USA). The lethal dose (LD50) was defined as the concentrations of the compounds that reduced survival of L. amazonensis by 50% compared to untreated parasites in culture medium. AmB (1.96 to 0.25 µg/mL) was used as positive control of leishmanicidal activity. The therapeutic selectivity index (TSI CC50/LD50) was calculated by the ratio of toxicity to macrophage vs toxicity to parasites after 24 h incubation ([28]). All assays were performed in triplicate and repeated at least three times.

[2] = tested on: Leishmania amazonensis promastigotes; assay: Promastigote growth inhibition, counting in Neubauer chamber (IC50); assay type: cell-based, Leishmania amazonensis (MHOM/BR/1977/LTB0016); conditions: Leishmania amazonensis; 24 h incubation, growth inhibition by counting
Experimental: Leishmania growth was evaluated after 24 h of incubation at 25°C with the compounds under the same conditions as previously mentioned. Then, 10 µL of the content of each well was added to a 990 µL (1/100) of formalin solution (2%), and the parasites were counted in a Neubauer chamber. The inhibitory concentration (IC50) of promastigotes was calculated by comparing with untreated promastigotes in culture medium. The results were evaluated by linear regression of the inhibition percentage. The selectivity index (SI CC50/IC50) was calculated by the ratio of toxicity concentration to macrophage vs inhibitory concentration to the parasite growth after 24 h incubation ([27]). All assays were performed in triplicate and repeated at least three times.

[3] = tested on: Leishmania amazonensis promastigotes; assay: Change in cell volume and morphology of the parasites (flow cytometry FSC-H/SSC-H, SEM); assay type: cell-based; conditions: 24 h; lapachol 76.62 µg/mL, β-lapachone 1.63 µg/mL, H2O2 2 mM; untreated 93.14%
Experimental: Promastigote forms (2×10^7 cells) of L. amazonensis untreated (negative control) or treated with 76.62 µg/mL of lapachol and 1.63 µg/mL of β-lapachone were analyzed to observe changes in cell morphology of the parasites induced by the treatment after 24 h of incubation. […] Subsequently, the parasites were analyzed using a BD FacsCalibur flow cytometer (Becton Dickinson, USA) and CellQuest Pro software (Joseph Trotter, Scripps Research Institute, USA), and 10,000 events were acquired. Dot plots were generated, the forward scatter (FSC-H) parameter was analyzed as presenting a correlation with the cell volume.
Scanning electron microscopy (SEM) also was performed to analyze morphological changes in cell surface topography. After 24 h of treatment, the parasites were centrifuged at 576 g for 10 min, and the samples were fixed in 2.5% glutaraldehyde and 0.1 M sodium cacodylate buffer. Poly-L-lysine was used to promote the adhesion of fixed parasites on coverslips. Promastigotes were dehydrated with increasing ethanol concentrations (30-100%), submitted to critical point drying, and metalized with gold for visualization on a Shimadzu 55-550 (Japan) microscope.

[4] = tested on: Leishmania amazonensis promastigotes; assay: Mitochondria membrane potential (ΔΨm), Rh123 flow cytometry; assay type: cell-based; conditions: for Reduction in ΔΨm: lapachol 76.62 µg/mL, β-lapachone 1.63 µg/mL, H2O2 2 mM; for Variation Index (VI) of Rh123 fluorescence, (MT−MC)/MC: lapachol 76.62 μg/mL, β-lapachone 1.63 μg/mL, PC 2 mM
Experimental: The ΔΨm was determined using on BD FacsCalibur™ flow cytometer and CellQuest Pro software, with a total of 10.000 events acquired, using a mitochondrial-specific green-fluorescent dye Rh123 ([31]). Briefly, L. amazonensis (2×10^7 parasites/mL) were incubated with lapachol (76.62 µg/mL) and β-lapachone (1.63 µg/mL) for 1, 4, and 24 h at 25°C. After washed with PBS, the parasites were incubated with 5 μg/mL Rh123 for 15 min. After the incubation time, the cells were washed and suspended in PBS for additional incubation of 30 min for analysis. The percentage of fluorescence of Rh123, was determined by the (MT/MC)*100 equation, with MT representing the median fluorescence of the treated parasites and the MC the median fluorescence of negative controls. Alteration in ΔΨm was quantified using an index of variation (IV) obtained by the equation IV = (MT - MC)/MC, where negative IV values correspond to depolarization of the mitochondrial membrane. H2O2 (2 mM) was used as a positive control ([32]).

| SMILES | Promastigotes LD50 ([1]; 24 h incubation) [µg/mL] | Promastigotes LD50 ([1]; 48 h incubation) [µg/mL] | Promastigotes LD50 ([1]; 72 h incubation) [µg/mL] | IC50 [2] [µg/mL] | Percentage population of the lower left quadrant gate (FSC-H/SSC-H, cell volume) [3] [%] | Reduction in ΔΨm ([4]; 1 h) [%] | Variation Index (VI) of Rh123 fluorescence, (MT−MC)/MC ([4]; 1 h) | Variation Index (VI) of Rh123 fluorescence, (MT−MC)/MC ([4]; 4 h) | Reduction in ΔΨm ([4]; 24 h) [%] | Variation Index (VI) of Rh123 fluorescence, (MT−MC)/MC ([4]; 24 h) |
| --- | --- | --- | --- | --- | --- | --- | --- | --- | --- | --- |
| C[C@@H]1[C@H](O)[C@@H](C)/C=C/C=C/C=C/C=C/C=C/C=C/C=C/[C@H](O[C@@H]2O[C@H](C)[C@@H](O)[C@H](N)[C@@H]2O)C[C@@H]2O[C@](O)(C[C@@H](O)C[C@@H](O)[C@H](O)CC[C@@H](O)C[C@@H](O)CC(=O)O[C@H]1C)C[C@H](O)[C@H]2C(=O)O [AmB, Amphotericin B, reference compound] | 0.97 ± 0.09 | 1.65 ± 0.02 | 0.80 ± 0.03 | 0.632 ± 0.12 (≈ 0.684 µM) | – | – | – | – | – | – |
| OO [H2O2, reference compound] | – | – | – | – | 49.51 | 97 | -0.97 | -0.98 | 98 | -0.98 |

— publication PMC10229078, “In vitro effects of lapachol and β-lapachone against Leishmania amazonensis” (Brazilian Journal of Medical and Biological Research, 2023)
